From ChEMBL document CHEMBL4052581, “Expanding the Cancer Arsenal with Targeted Therapies: Disarmament of the Antiapoptotic Bcl-2 Proteins by Small Molecules” (J Med Chem, 2017)

Columns and labels:
[1] = biological target: T1, Apoptosis regulator Bcl-2 (Homo sapiens, UniProt P10415); test: Inhibition of FAM-Bid binding to Bcl-2 (unknown origin) after 30 mins by fluorescence polarization assay
[2] = biological target: T2, Induced myeloid leukemia cell differentiation protein Mcl-1 (Homo sapiens, UniProt Q07820); test: Inhibition of FAM-Bid binding to Mcl-1 (unknown origin) after 30 mins by fluorescence polarization assay
T2 sequence (Q07820 whole entry): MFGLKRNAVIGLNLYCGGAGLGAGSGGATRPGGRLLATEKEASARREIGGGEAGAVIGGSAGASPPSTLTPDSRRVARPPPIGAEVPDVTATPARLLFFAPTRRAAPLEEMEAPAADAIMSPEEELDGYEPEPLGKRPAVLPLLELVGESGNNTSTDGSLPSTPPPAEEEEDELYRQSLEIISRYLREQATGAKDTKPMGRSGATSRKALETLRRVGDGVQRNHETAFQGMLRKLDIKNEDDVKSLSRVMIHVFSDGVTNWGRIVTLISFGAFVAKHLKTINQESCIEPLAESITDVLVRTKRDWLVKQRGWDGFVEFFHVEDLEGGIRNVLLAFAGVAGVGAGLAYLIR

[3] = biological target: T2, Induced myeloid leukemia cell differentiation protein Mcl-1; test: Binding affinity to Mcl-1 (unknown origin) by TR-FRET assay
[4] = biological target: T2, Induced myeloid leukemia cell differentiation protein Mcl-1; test: Inhibition of FITC-labeled Bak-BH3 peptide binding to Mcl-1 (unknown origin) by fluorescence polarization assay
Bcl-2-like protein 1 [5] = biological target: T3, Bcl-2-like protein 1 (Homo sapiens, UniProt Q07817); test: Inhibition of FITC-labeled Bak-BH3 peptide binding to Bcl-xL (unknown origin) by fluorescence polarization assay
T3 sequence (Q07817 whole entry): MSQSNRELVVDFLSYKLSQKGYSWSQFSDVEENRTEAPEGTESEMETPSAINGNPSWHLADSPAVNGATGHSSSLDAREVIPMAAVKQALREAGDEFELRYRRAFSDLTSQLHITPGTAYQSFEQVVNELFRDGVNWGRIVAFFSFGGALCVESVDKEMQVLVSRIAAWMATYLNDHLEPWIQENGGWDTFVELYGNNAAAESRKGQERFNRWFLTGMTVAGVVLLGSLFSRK

[6] = biological target: T2, Induced myeloid leukemia cell differentiation protein Mcl-1; test: Inhibition of Bim BH3 peptide binding to GST-tagged human Mcl-1 after 3 hrs by Western blotting-based GST pull-down assay
Bcl-2-like protein 1 [7] = biological target: T3, Bcl-2-like protein 1; test: Inhibition of Bak BH3 peptide binding to GST-tagged human Bcl-xL after 3 hrs by Western blotting-based GST pull-down assay
Homo sapiens [8] = species on record: Homo sapiens; test: Selectivity ratio of compound effect for Bcl-xL (unknown origin) to compound effect for Mcl-1 (unknown origin)
[9] = biological target: T1, Apoptosis regulator Bcl-2; test: Inhibition of Bcl-2 (unknown origin) by fluorescence polarization assay
Bcl-2-like protein 1 [10] = biological target: T3, Bcl-2-like protein 1; test: Inhibition of Bcl-xL (unknown origin) by fluorescence polarization assay
Homo sapiens [11] = species on record: Homo sapiens; test: Selectivity ratio of compound effect for Bcl-2 (unknown origin) to compound effect for Mcl-1 (unknown origin)
Bcl-2-related protein A1 = biological target: T4, Bcl-2-related protein A1 (Homo sapiens, UniProt Q16548); test: Binding affinity to Bcl2A1 (unknown origin)
T4 sequence (Q16548 whole entry): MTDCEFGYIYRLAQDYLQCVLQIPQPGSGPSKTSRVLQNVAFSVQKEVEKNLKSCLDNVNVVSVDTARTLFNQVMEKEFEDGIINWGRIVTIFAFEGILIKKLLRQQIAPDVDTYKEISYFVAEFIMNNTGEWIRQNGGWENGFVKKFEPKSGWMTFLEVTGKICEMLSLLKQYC

Bcl-2-like protein 1 [12] = biological target: T3, Bcl-2-like protein 1; test: Inhibition of FITC-BID BH3 peptide binding to recombinant GST-tagged C-terminal truncated Bcl-xL (unknown origin) expressed in Escherichia coli BL21 (DE3) after 5 mins by fluorescence polarization assay
[13] = biological target: T2, Induced myeloid leukemia cell differentiation protein Mcl-1; test: Inhibition of FITC-BID BH3 peptide binding to recombinant GST-tagged N-terminal/C-terminal truncated Mcl-1 (unknown origin) expressed in Escherichia coli BL21 (DE3) after 5 mins by fluorescence polarization assay
[14] = Selectivity ratio of IC50 for human Bcl-2 to IC50 for mouse Mcl-1
[15] = biological target: T2, Induced myeloid leukemia cell differentiation protein Mcl-1; test: Inhibition of FITC-labeled Bim BH3 binding to GST-tagged Mcl-1 (unknown origin) preincubated for 2 mins followed by FITC-Bim-BH3 addition measured after 10 mins by fluorescence polarization assay

T1 sequence (P10415 whole entry): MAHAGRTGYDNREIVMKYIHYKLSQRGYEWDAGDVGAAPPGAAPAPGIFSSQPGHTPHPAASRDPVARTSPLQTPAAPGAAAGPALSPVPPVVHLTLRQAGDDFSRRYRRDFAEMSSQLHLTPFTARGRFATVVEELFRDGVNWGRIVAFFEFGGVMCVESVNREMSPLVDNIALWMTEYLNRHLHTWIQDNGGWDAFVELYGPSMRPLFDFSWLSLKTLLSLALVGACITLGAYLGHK

N#CC1=C2C(=NC1=O)c1cccc3c(N4CCSCC4)ccc2c13
Kd [1]: 310 nM
Kd [2]: 58 nM

CC1(C)CCC(CN2CCN(c3ccc(C(=O)NS(=O)(=O)c4ccc(NCC5CCOCC5)c([N+](=O)[O-])c4)c(Oc4cnc5[nH]ccc5c4)c3)CC2)=C(c2ccc(Cl)cc2)C1 [VENETOCLAX]
Ki [3]: > 444 nM

CC(C)Oc1cc(C(=O)Nc2ccc(C(=O)Nc3ccc(C(=O)O)cc3OC(C)C)nc2OC(C)C)ccc1N
IC50 [4]: 10000 nM
IC50 (Bcl-2-like protein 1 [5]): 394 nM

CC(C)Cc1cc(-c2ccc(-c3ccc(CCC(=O)O)cc3CC(C)C)cc2Cc2ccccc2)ccc1OCC(=O)O
IC50 [6]: 4900 nM
IC50 (Bcl-2-like protein 1 [7]): 1500 nM

Cc1c(S(C)(=O)=O)c(-c2cc(F)cc(N3CCN(c4ccc(NS(=O)(=O)c5ccc(N[C@H](CCN6CCC(O)CC6)CSc6ccccc6)c(S(=O)(=O)C(F)(F)F)c5)cc4)CC3)c2)c(-c2ccc(Cl)cc2)n1C(C)C
Selectivity ratio (Homo sapiens [8]): > 1000
Ki [9]: < 1 nM
Ki (Bcl-2-like protein 1 [10]): < 1 nM
Selectivity ratio (Homo sapiens [11]): > 1000

CN(C)CC[C@H](CSc1ccccc1)Nc1ccc(S(=O)(=O)NC(=O)c2ccc(N3CCN(Cc4ccccc4-c4ccc(Cl)cc4)CC3)cc2)cc1[N+](=O)[O-] [ABT 737]
Ki (Bcl-2-related protein A1): > 20000 nM

Cc1cs/c(=N\C2CCCCC2)n1/N=C/c1cc(O)c(O)c(O)c1
IC50 (Bcl-2-like protein 1 [12]): > 50000 nM
IC50 [13]: 4800 nM

O=C(c1ccccc1O)c1[nH]c(Cl)c(Cl)c1-n1c(C(=O)c2ccccc2O)cc(Cl)c1Cl
Ratio IC50 [14]: > 8

CC1=C(C2=C(C)C(=O)c3c(cc(O)c(O)c3Cc3ccccc3)C2=O)C(=O)c2cc(O)c(O)c(Cc3ccccc3)c2C1=O
IC50 [15]: 25 nM
